# Laboratory results from patent US20240415914A1, “Water Dispersible Cannabinoid Compositions” (priority 2021, published 2024).
# Test: Stability of cannabinoid and Vitamin E components of Beverage 1 (AB White) stored at 8° C. and 21-25° C., LCMSMS over 570 days
# Assay type: physicochemical
# Details: for Stability in AB White, 8° C. (content by LCMSMS): beverage stored at 8° C.; for Stability in AB White, 21-25° C. (content by LCMSMS): beverage stored at 21-25° C.
# Protocol: The LCMSMS was calibrated for 0-1000 ng/ml cannabinoids with the same resin material used in the preparation of the concentrates. At each time period, 100 ml of beverage was diluted with 10 ml of methanol and injected into the LCMSMS for analysis.
smiles,measurement,setting,value
"C=C(C)[C@@H]1CCC(C)=C[C@H]1c1c(O)cc(CCCCC)c(C(=O)O)c1O [CBDA, cannabidiolic acid]","Stability in AB White, 8° C. (content by LCMSMS)",day 0,1.75 µg/mL
same,"Stability in AB White, 8° C. (content by LCMSMS)",day 1,1.72 µg/mL
same,"Stability in AB White, 8° C. (content by LCMSMS)",day 2,1.76 µg/mL
same,"Stability in AB White, 8° C. (content by LCMSMS)",day 3,1.76 µg/mL
same,"Stability in AB White, 8° C. (content by LCMSMS)",day 5,1.71 µg/mL
same,"Stability in AB White, 8° C. (content by LCMSMS)",day 8,1.75 µg/mL
same,"Stability in AB White, 8° C. (content by LCMSMS)",day 9,1.73 µg/mL
same,"Stability in AB White, 8° C. (content by LCMSMS)",day 10,1.76 µg/mL
same,"Stability in AB White, 8° C. (content by LCMSMS)",day 11,1.70 µg/mL
same,"Stability in AB White, 8° C. (content by LCMSMS)",day 12,1.71 µg/mL
same,"Stability in AB White, 8° C. (content by LCMSMS)",day 15,1.74 µg/mL
same,"Stability in AB White, 8° C. (content by LCMSMS)",day 16,1.73 µg/mL
same,"Stability in AB White, 8° C. (content by LCMSMS)",day 17,1.73 µg/mL
same,"Stability in AB White, 8° C. (content by LCMSMS)",day 18,1.76 µg/mL
same,"Stability in AB White, 8° C. (content by LCMSMS)",day 19,1.74 µg/mL
same,"Stability in AB White, 8° C. (content by LCMSMS)",day 22,1.70 µg/mL
same,"Stability in AB White, 8° C. (content by LCMSMS)",day 23,1.76 µg/mL
same,"Stability in AB White, 8° C. (content by LCMSMS)",day 24,1.72 µg/mL
same,"Stability in AB White, 8° C. (content by LCMSMS)",day 25,1.75 µg/mL
same,"Stability in AB White, 8° C. (content by LCMSMS)",day 26,1.75 µg/mL
same,"Stability in AB White, 8° C. (content by LCMSMS)",day 29,1.75 µg/mL
same,"Stability in AB White, 8° C. (content by LCMSMS)",day 30,1.76 µg/mL
same,"Stability in AB White, 8° C. (content by LCMSMS)",day 60,1.70 µg/mL
same,"Stability in AB White, 8° C. (content by LCMSMS)",day 90,1.70 µg/mL
same,"Stability in AB White, 8° C. (content by LCMSMS)",day 120,1.67 µg/mL
same,"Stability in AB White, 8° C. (content by LCMSMS)",day 150,1.71 µg/mL
same,"Stability in AB White, 8° C. (content by LCMSMS)",day 180,1.75 µg/mL
same,"Stability in AB White, 8° C. (content by LCMSMS)",day 210,1.68 µg/mL
same,"Stability in AB White, 8° C. (content by LCMSMS)",day 240,1.70 µg/mL
same,"Stability in AB White, 8° C. (content by LCMSMS)",day 270,1.70 µg/mL
same,"Stability in AB White, 8° C. (content by LCMSMS)",day 300,1.69 µg/mL
same,"Stability in AB White, 8° C. (content by LCMSMS)",day 330,1.70 µg/mL
same,"Stability in AB White, 8° C. (content by LCMSMS)",day 360,1.70 µg/mL
same,"Stability in AB White, 8° C. (content by LCMSMS)",day 390,1.70 µg/mL
same,"Stability in AB White, 8° C. (content by LCMSMS)",day 420,1.67 µg/mL
same,"Stability in AB White, 8° C. (content by LCMSMS)",day 450,1.68 µg/mL
same,"Stability in AB White, 8° C. (content by LCMSMS)",day 480,1.66 µg/mL
same,"Stability in AB White, 8° C. (content by LCMSMS)",day 510,1.61 µg/mL
same,"Stability in AB White, 8° C. (content by LCMSMS)",day 540,1.61 µg/mL
same,"Stability in AB White, 8° C. (content by LCMSMS)",day 570,1.60 µg/mL
same,"Stability in AB White, 21-25° C. (content by LCMSMS)",day 0,1.75 µg/mL
same,"Stability in AB White, 21-25° C. (content by LCMSMS)",day 1,1.76 µg/mL
same,"Stability in AB White, 21-25° C. (content by LCMSMS)",day 2,1.70 µg/mL
same,"Stability in AB White, 21-25° C. (content by LCMSMS)",day 3,1.71 µg/mL
same,"Stability in AB White, 21-25° C. (content by LCMSMS)",day 5,1.69 µg/mL
same,"Stability in AB White, 21-25° C. (content by LCMSMS)",day 8,1.77 µg/mL
same,"Stability in AB White, 21-25° C. (content by LCMSMS)",day 9,1.74 µg/mL
same,"Stability in AB White, 21-25° C. (content by LCMSMS)",day 10,1.73 µg/mL
same,"Stability in AB White, 21-25° C. (content by LCMSMS)",day 11,1.76 µg/mL
same,"Stability in AB White, 21-25° C. (content by LCMSMS)",day 12,1.74 µg/mL
same,"Stability in AB White, 21-25° C. (content by LCMSMS)",day 15,1.69 µg/mL
same,"Stability in AB White, 21-25° C. (content by LCMSMS)",day 16,1.75 µg/mL
same,"Stability in AB White, 21-25° C. (content by LCMSMS)",day 17,1.72 µg/mL
same,"Stability in AB White, 21-25° C. (content by LCMSMS)",day 18,1.75 µg/mL
same,"Stability in AB White, 21-25° C. (content by LCMSMS)",day 19,1.70 µg/mL
same,"Stability in AB White, 21-25° C. (content by LCMSMS)",day 22,1.70 µg/mL
same,"Stability in AB White, 21-25° C. (content by LCMSMS)",day 23,1.73 µg/mL
same,"Stability in AB White, 21-25° C. (content by LCMSMS)",day 24,1.70 µg/mL
same,"Stability in AB White, 21-25° C. (content by LCMSMS)",day 25,1.73 µg/mL
same,"Stability in AB White, 21-25° C. (content by LCMSMS)",day 26,1.75 µg/mL
same,"Stability in AB White, 21-25° C. (content by LCMSMS)",day 29,1.76 µg/mL
same,"Stability in AB White, 21-25° C. (content by LCMSMS)",day 30,1.71 µg/mL
same,"Stability in AB White, 21-25° C. (content by LCMSMS)",day 60,1.68 µg/mL
same,"Stability in AB White, 21-25° C. (content by LCMSMS)",day 90,1.67 µg/mL
same,"Stability in AB White, 21-25° C. (content by LCMSMS)",day 120,1.66 µg/mL
same,"Stability in AB White, 21-25° C. (content by LCMSMS)",day 150,1.64 µg/mL
same,"Stability in AB White, 21-25° C. (content by LCMSMS)",day 180,1.69 µg/mL
same,"Stability in AB White, 21-25° C. (content by LCMSMS)",day 210,1.73 µg/mL
same,"Stability in AB White, 21-25° C. (content by LCMSMS)",day 240,1.73 µg/mL
same,"Stability in AB White, 21-25° C. (content by LCMSMS)",day 270,1.71 µg/mL
same,"Stability in AB White, 21-25° C. (content by LCMSMS)",day 300,1.73 µg/mL
same,"Stability in AB White, 21-25° C. (content by LCMSMS)",day 330,1.72 µg/mL
same,"Stability in AB White, 21-25° C. (content by LCMSMS)",day 360,1.69 µg/mL
same,"Stability in AB White, 21-25° C. (content by LCMSMS)",day 390,1.67 µg/mL
same,"Stability in AB White, 21-25° C. (content by LCMSMS)",day 420,1.64 µg/mL
same,"Stability in AB White, 21-25° C. (content by LCMSMS)",day 450,1.70 µg/mL
same,"Stability in AB White, 21-25° C. (content by LCMSMS)",day 480,1.63 µg/mL
same,"Stability in AB White, 21-25° C. (content by LCMSMS)",day 510,1.66 µg/mL
same,"Stability in AB White, 21-25° C. (content by LCMSMS)",day 540,1.63 µg/mL
same,"Stability in AB White, 21-25° C. (content by LCMSMS)",day 570,1.61 µg/mL
